{"source": "patent US10927117B2", "about": "(BEIGENE SWITZERLAND GMBH, priority 2016, dated 2021)", "key": {"[1]": {"test_system": "rituximab-induced antigen-dependent cell-mediated cytotoxicity (ADCC)", "assay": "Rituximab-induced ADCC inhibition", "assay_type": "cell-based"}, "Tissue distribution": {"assay": "Tissue distribution", "assay_type": "in vivo"}, "[2]": {"test_system": "Chronic Lymphocytic Leukemia and Small Lymphocytic Lymphoma (CLL/SLL)", "assay": "Phase 1 trial in patients with CLL/SLL", "assay_type": "in vivo, human", "description": "The dose-escalation component of the trail tested total daily doses between 40 mg and 320 mg, and the ongoing dose-expansion component is testing doses of 160 mg twice a day (BID) or 320 mg once a day (QD). As of Mar. 31, 2017, 69 patients with CLL or SLL (18 TN, […]) were enrolled in the study."}, "[3]": {"test_system": "Waldenstrom's Macroglobulinemia (WM)", "assay": "Phase 1 trial in patients with Waldenstrom's Macroglobulinemia (WM)", "assay_type": "in vivo, human", "description": "The dose-escalation component of the trail tested total daily doses ranging from 40 mg to 320 mg, and the ongoing dose-expansion phase is testing doses of 160 mg twice a day (BID) or 320 mg once a day (QD). As of Mar. 31, 2017, 48 patients with WM were enrolled in the study. Responses were determined according to the modified Sixth International Workshop on WM (IWWM) criteria."}, "[4]": {"assay": "Pharmacokinetics study in mouse", "assay_type": "in vivo", "conditions": "ICR mice, oral gavage", "description": "For time course study, mice were randomly assigned into 7 groups with 4 mice per group. […] For dose dependency study, mice were randomly assigned into 9 groups with 4 mice per group. […] Treatments were administered by oral gavage (p.o.) in a volume of 10 ml/kg body weight. Body weight was assessed immediately before dosing and volume dosed was adjusted accordingly.\nPK SAMPLE PREPARATION: For time course study, blood samples (50 μL per mouse) were collected from the retro-orbital sinus under isoflurane/oxygen anesthesia at 15 min after dosing (this group of mice were also used for 24 hr time point) or heart puncture after euthanization for the other time points. For dose dependency study, blood samples were collected from the retro-orbital sinus under isoflurane/oxygen anesthesia at 30 minutes after dosing. Plasma was collected by centrifugation at 3,000 g for 10 minutes and was kept frozen in −80° C. until analysis.\nPK Analysis: maximum plasma concentration (Cmax) and time to reach Cmax (Tmax) were taken directly from the plasma concentration versus time profiles."}, "TEC": {"biological_target": "T1, TEC (Homo sapiens, UniProt P42680)", "T1 sequence (P42680 1-631)": "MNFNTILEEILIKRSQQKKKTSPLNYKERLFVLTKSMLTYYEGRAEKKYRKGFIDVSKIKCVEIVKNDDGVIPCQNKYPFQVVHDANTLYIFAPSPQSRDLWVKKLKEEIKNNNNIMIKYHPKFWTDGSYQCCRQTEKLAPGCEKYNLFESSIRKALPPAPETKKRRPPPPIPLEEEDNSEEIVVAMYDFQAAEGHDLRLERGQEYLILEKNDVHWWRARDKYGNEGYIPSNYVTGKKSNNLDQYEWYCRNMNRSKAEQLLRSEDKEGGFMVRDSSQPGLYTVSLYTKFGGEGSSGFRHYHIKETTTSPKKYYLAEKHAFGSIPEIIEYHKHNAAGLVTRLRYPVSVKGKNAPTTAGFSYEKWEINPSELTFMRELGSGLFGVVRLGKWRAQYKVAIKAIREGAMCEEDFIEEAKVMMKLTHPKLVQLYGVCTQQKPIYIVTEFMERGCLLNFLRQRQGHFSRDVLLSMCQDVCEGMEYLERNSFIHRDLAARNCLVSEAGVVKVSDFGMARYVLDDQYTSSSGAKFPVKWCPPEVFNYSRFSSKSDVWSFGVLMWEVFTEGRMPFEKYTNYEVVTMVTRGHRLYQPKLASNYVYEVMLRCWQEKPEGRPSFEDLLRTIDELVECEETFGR", "assay": "IC50 determination of TEC (TR-FRET)", "assay_type": "biochemical", "conditions": "at KM of ATP, 1-hour pre-incubation"}, "[5]": {"conditions": "CLL/SLL, adverse event of interest"}}}
{"smiles": "C=CC(=O)N1CCC([C@@H]2CCNc3c(C(N)=O)c(-c4ccc(Oc5ccccc5)cc4)nn32)CC1", "note": "[Compound 1, (S)-7-(1-acryloylpiperidin-4-yl)-2-(4-phenoxyphenyl)-4,5,6,7-tetra-hydropyrazolo[1,5-a]pyrimidine-3-carboxamide]", "values": [{"measurement": "inhibition of rituximab-induced ADCC compared with ibrutinib", "setting": "[1]", "value": "significantly less inhibition"}, {"measurement": "level in brain tissue", "setting": "Tissue distribution; brain", "value": "low in brain tissue"}, {"measurement": "tissue distribution", "setting": "Tissue distribution; various tissues", "value": "widely distributed to various tissues"}, {"measurement": "AE arthralgia", "setting": "[2]; CLL/SLL", "value": 12, "unit": "%"}, {"measurement": "AE cough", "setting": "[2]; CLL/SLL", "value": 23, "unit": "%"}, {"measurement": "AE diarrhea", "setting": "[2]; CLL/SLL", "value": 22, "unit": "%"}, {"measurement": "AE fatigue", "setting": "[2]; CLL/SLL", "value": 29, "unit": "%"}, {"measurement": "AE headache", "setting": "[2]; CLL/SLL", "value": 19, "unit": "%"}, {"measurement": "AE hematuria", "setting": "[2]; CLL/SLL", "value": 15, "unit": "%"}, {"measurement": "AE muscle spasms", "setting": "[2]; CLL/SLL", "value": 12, "unit": "%"}, {"measurement": "AE nausea", "setting": "[2]; CLL/SLL", "value": 13, "unit": "%"}, {"measurement": "AE rash", "setting": "[2]; CLL/SLL", "value": 13, "unit": "%"}, {"measurement": "AE upper respiratory tract infection", "setting": "[2]; CLL/SLL", "value": 28, "unit": "%"}, {"measurement": "AE urinary tract infection", "setting": "[2]; CLL/SLL", "value": 12, "unit": "%"}, {"measurement": "number of serious AEs (SAEs)", "setting": "[2]; CLL/SLL", "value": 18}, {"measurement": "patients with serious AEs", "setting": "[2]; CLL/SLL", "value": 13}, {"measurement": "overall response rate (ORR)", "setting": "[2]; CLL/SLL, 66 evaluable patients, median follow-up 10.5 months", "value": 94, "unit": "%"}, {"measurement": "PRs with lymphocytosis (PR-Ls)", "setting": "[2]; CLL/SLL, 66 patients", "value": 9, "unit": "%"}, {"measurement": "complete responses (CRs)", "setting": "[2]; CLL/SLL, 66 patients", "value": 3, "unit": "%"}, {"measurement": "partial responses (PRs)", "setting": "[2]; CLL/SLL, 66 patients", "value": 82, "unit": "%"}, {"measurement": "grade 2 atrial fibrillation", "setting": "[2]; [5]", "value": "one case"}, {"measurement": "grade 2 diarrhea", "setting": "[2]; [5]", "value": "one case"}, {"measurement": "AE petechiae/purpura/contusion", "setting": "[2]; CLL/SLL, any attribution", "value": 46, "unit": "%"}, {"measurement": "patients who discontinued treatment due to an AE", "setting": "[2]; CLL/SLL, grade 2 pleural effusion", "value": "one patient"}, {"measurement": "treatment discontinuation rate", "setting": "[2]; CLL/SLL, median follow-up 10.5 months", "value": 3, "unit": "%"}, {"measurement": "major bleeding event", "setting": "[2]; CLL/SLL, subcutaneous hemorrhage", "value": "one case of grade 3 purpura"}, {"measurement": "CRs", "setting": "[2]; R/R CLL/SLL, 50 patients", "value": 2, "unit": "%"}, {"measurement": "PR-Ls", "setting": "[2]; R/R CLL/SLL, 50 patients", "value": 8, "unit": "%"}, {"measurement": "PRs", "setting": "[2]; R/R CLL/SLL, 50 patients", "value": 82, "unit": "%"}, {"measurement": "stable disease", "setting": "[2]; R/R CLL/SLL, 50 patients", "value": 6, "unit": "%"}, {"measurement": "ORR", "setting": "[2]; R/R CLL/SLL, 50 patients, median follow-up 14.0 months", "value": 92, "unit": "%"}, {"measurement": "CRs", "setting": "[2]; TN CLL/SLL, 16 patients", "value": 6, "unit": "%"}, {"measurement": "PR-Ls", "setting": "[2]; TN CLL/SLL, 16 patients", "value": 13, "unit": "%"}, {"measurement": "PRs", "setting": "[2]; TN CLL/SLL, 16 patients", "value": 81, "unit": "%"}, {"measurement": "ORR", "setting": "[2]; TN CLL/SLL, 16 patients, median follow-up 7.6 months", "value": 100, "unit": "%"}, {"measurement": "discontinuation for Compound 1-related toxicity", "setting": "[3]", "value": "no discontinuation"}, {"measurement": "events leading to treatment discontinuation", "setting": "[3]", "value": "Three events"}, {"measurement": "serious AEs assessed to be possibly related", "setting": "[3]", "value": "Five"}, {"measurement": "major response rate", "setting": "[3]; 42 evaluable patients", "value": 76, "unit": "%"}, {"measurement": "partial responses", "setting": "[3]; 42 evaluable patients", "value": 33, "unit": "%"}, {"measurement": "overall response rate (ORR)", "setting": "[3]; 42 evaluable patients, median follow-up 12.3 months", "value": 90, "unit": "%"}, {"measurement": "AE anemia", "setting": "[3]; 48 patients", "value": 15, "unit": "%"}, {"measurement": "AE constipation", "setting": "[3]; 48 patients", "value": 25, "unit": "%"}, {"measurement": "AE cough", "setting": "[3]; 48 patients", "value": 15, "unit": "%"}, {"measurement": "AE diarrhea", "setting": "[3]; 48 patients", "value": 19, "unit": "%"}, {"measurement": "AE epistaxis", "setting": "[3]; 48 patients", "value": 19, "unit": "%"}, {"measurement": "AE headache", "setting": "[3]; 48 patients", "value": 15, "unit": "%"}, {"measurement": "AE nausea", "setting": "[3]; 48 patients", "value": 17, "unit": "%"}, {"measurement": "AE neutropenia", "setting": "[3]; 48 patients", "value": 13, "unit": "%"}, {"measurement": "AE rash", "setting": "[3]; 48 patients", "value": 13, "unit": "%"}, {"measurement": "AE upper respiratory tract infection", "setting": "[3]; 48 patients", "value": 31, "unit": "%"}, {"measurement": "grade 3 or 4 anemia", "setting": "[3]; 48 patients", "value": 8, "unit": "%"}, {"measurement": "grade 3 or 4 diarrhea", "setting": "[3]; 48 patients", "value": 2, "unit": "%"}, {"measurement": "grade 3 or 4 headache", "setting": "[3]; 48 patients", "value": 2, "unit": "%"}, {"measurement": "grade 3 or 4 neutropenia", "setting": "[3]; 48 patients", "value": 8, "unit": "%"}, {"measurement": "AE petechiae/purpura/contusion", "setting": "[3]; 48 patients, any attribution", "value": 35, "unit": "%"}, {"measurement": "cases of atrial fibrillation", "setting": "[3]; all grade 1 or 2", "value": "three cases"}, {"measurement": "serious hemorrhage", "setting": "[3]; hemothorax", "value": "one case"}]}
{"smiles": "C=CC(=O)N1CCC([C@@H]2CCNc3c(C(N)=O)c(-c4ccc(Oc5ccccc5)cc4)nn32)CC1", "note": "[Crystalline Form A, (S)-7-(1-acryloylpiperidin-4-yl)-2-(4-phenoxyphenyl)-4,5,6,7-tetra-hydropyrazolo[1,5-a]pyrimidine-3-carboxamide]", "values": [{"measurement": "absorption and elimination", "setting": "[4]", "value": "quickly absorbed and eliminated"}, {"measurement": "IC50", "setting": "TEC", "value": 1.9, "unit": "nM"}]}
